Measurements as given in patent publication US7989495B2, “Compositions and methods for inhibiting NF-κB mediated tumorigenicity and adhesion dependent survival of cancer cells” (University of Utah Research Foundation, priority 2002, dated 2011).
Entries after “also recorded” stand apart in the source; their conditions may differ. Peptide text beside a SMILES is read from it. * marks the point of attachment. Cbz = O=C(OCc1ccccc1)*

Columns and labels:
Format in all cases: cell-based
adherent HT-29 cells = assay: Apoptosis assay (annexin V-FITC / propidium iodide flow cytometry), adherent cells
Protocol: The data points represent the average percent of annexin V-positive, propidium iodide-negative cells (of the total cells counted) from triplicate experiments. The error bars represent the standard error of the means. […] The results shown are a graphic representation of individual flow cytometry results expressed as the percentage of cells that were annexin V-positive of those that excluded propidium iodide. […] An immunoblot of the lysates for cleaved PARP was performed. Each lane represents equal total protein concentrations. […] The cells were allowed to adhere to plastic dishes for 1 hour after which they were washed gently in PBS and stained with crystal violet. The crystal violet stained cells were solubilized in deoxycholate and the absorbance detected in a spectrophotometer at 590 nm. The adherent cells were expressed as a fraction of the controls Each data point represents the average of triplicate experiments and the error bars the standard errors of the means.
(§1) Single cell suspensions were plated at 100,000 cells per well in 24-well plates in media containing DMSO, BAY 11-7082, BAY 11-7085, or MG-132 for 8-24 hours in an incubator. Alternatively, DMSO, BAY 11-7082, BAY 11-7085, or MG-132 were added to cells that were confluent and adherent for several days. The nonadherent cells were aspirated off with the media and spun for 3 minutes at 2,000 rpm in 15 ml polypropylene tubes. The adherent cells were washed twice with PBS, dispersed in trypsin, and spun down for 3 minutes at 2,000 rpm in 15 ml polypropylene tubes. The nonadherent and adherent cells were resuspended in 1× binding buffer (10 mM HEPES/NaOH, pH 7.4, 140 mM NaCl, and 2.5 mM CaCl2) to a final concentration of 10^6 cells/ml. 100 μl of the cell solution were transferred to a 5 ml culture tube and incubated with 5 μl of annexin V-FITC-conjugated monoclonal antibody (Pharmingen) and 10 μl of propidium iodide (from a 50 μg/ml stock solution made in PBS) in the dark at 25° C. for 15 minutes. 400 μl of binding buffer was added to each tube and the cells were analyzed by flow cytometry immediately. The percent of apoptosis was determined as the percent of annexin V-positive, propidium iodide-negative cells of the total cells counted.

[1] = test system: transiently suspended HT-29 cells; assay: Apoptosis (annexin V) of transiently suspended cells allowed to readhere; details: HT-29; various concentrations; 4 h; compared with BAY 11-7085
Protocol: HT-29 cells that were either transiently suspended with trypsin-EDTA or adherent for three days, were treated at time zero with DMSO or 10-100 μM BAY 11-7085. The percent of apoptotic cells was determined using the annexin V flow cytometry assay and graphed versus the dose of BAY 11-7085. […] The cells were fixed and immunostained with an NF-κB p65 subunit monoclonal antibody.
The transiently suspended cells were lysed and allowed to bind to DNA oligonucleotides, containing the NF-κB consensus binding site, that were immobilized to 96-well plates. NF-κB protein bound to the oligonucleotides was detected by an antibody to the p65 subunit that only recognized p65 that is bound to DNA. The positive control was HeLa cells that were stimulated with TNFα A control was performed using excess free NF-κB oligonucleotides (Competitor). […] NF-κB binding activity was determined by the TransAM assay as in FIG. 5A. […] The data shown represent typical results of three separate experiments. […] An immunoblot for COX-2 was performed.
The percentage of apoptotic cells was determined using the annexin V assay. The data points represent the averages of three experiments; bars, ±SE. E. DLD-1 and F. HT-29 cells were transduced with an adenovirus containing the IκB super-repressor construct. After 3 days, the cells were transiently suspended and allowed to readhere in the presence of subapoptotic concentrations of BAY 11-7085 or DMSO (vehicle) for 8 h. The data are expressed as fractions of cells surviving compared with the controls (no adenovirus) and were quantitatively determined by staining the remaining adherent cells with crystal violet.
as §1
Various concentrations of BAY 11-7085 were added to HT-29 cells that were transiently suspended in trypsin-PBS for approximately 15 minutes before replating. The transiently suspended cells were quickly allowed to readhere in order to prevent anoikis. Alternatively, BAY 11-7085 was added to adherent HT-29 cell monolayers.

[2] = test system: cleaved PARP in HT-29 cells; assay: Immunoblot for cleaved PARP; details: 20 μM, 8 h
Protocol: The cells were washed twice in ice cold PBS and then lysed in 4° C. lysis buffer (50 mM HEPES, 150 mM NaCl, 1.5 mM MgCl2, 1 mM EGTA, 100 mM NaF, 10 mM Na2PO4, 1 mM Na3VO4, 10% glycerol, 1% Triton X-100, and 1 μg/ml each of aprotinin, leupeptin, chymostatin, pepstatin) and clarified at 12,000 rpm at 4° C. for 15 minutes. The lysates were normalized for total protein concentration. Aliquots of the lysates were then mixed 1:1 in sample buffer (125 mM Tris-HCl (pH 6.8), 20% glycerol. 4% sodium dodecyl sulfate, 2% beta-mercaptoethanol, 10 μg/ml bromophenol blue) and boiled for 3 minutes. The samples were loaded onto SDS-PAGE gels (7.5 or 10% acrylamide). […]
(§2) For immunodetection, the blocked blots were probed with primary antibody for 2 hours at 4° C. on a rocker. […] Alkaline phosphatase was detected by a colorimetric reaction using a BCIP (5-Bromo-4-Chloro-3-Indolyl phosphate)/NBT (Nitroblue tetrazolium) kit (Zymed).
It was confirmed in HT-29 cells that were treated with increasing concentrations of BAY 11-7085 for 24 h. After separating the HT-29 cells that remained adherent and those that became nonadherent after BAY 11-7085 treatment, the percentage of apoptotic cells was determined for each group. […]

[3] = test system: cleaved PARP in HCT-116 cells; assay: Immunoblot for cleaved PARP; details: 20 μM, 24 hours
Protocol: The data points represent the average percent of annexin V-positive, propidium iodide-negative cells (of the total cells counted) from triplicate experiments. The error bars represent the standard error of the means. […] The results shown are a graphic representation of individual flow cytometry results expressed as the percentage of cells that were annexin V-positive of those that excluded propidium iodide. […] An immunoblot of the lysates for cleaved PARP was performed. Each lane represents equal total protein concentrations. […] The cells were allowed to adhere to plastic dishes for 1 hour after which they were washed gently in PBS and stained with crystal violet. The crystal violet stained cells were solubilized in deoxycholate and the absorbance detected in a spectrophotometer at 590 nm. The adherent cells were expressed as a fraction of the controls Each data point represents the average of triplicate experiments and the error bars the standard errors of the means. […]
as §2

[4] = test system: HCT-116 colon cancer cell line; assay: Cell proliferation assay (crystal violet, 590 nm); details: 10 and 50 μg/ml, after several days of treatment
Protocol: (§3) DLD-1, HCT-116, and HT-29 colon cancer cell lines were obtained from the ATCC collection and were cultured in Dulbecco's Modification of Eagle's Medium supplemented with 10% fetal bovine serum, glutamine, penicillin, and streptomycin. 293 cells stably transfected with COX-2 (293-COX-2) under the control of a ponasterone sensitive promoter were cultured in Dulbecco's Modification of Eagle's Medium supplemented with 10% fetal bovine serum, 400 μg/ml of zeocin, 400 μg/ml of G418, glutamine, penicillin, and streptomycin. For induction of COX-2 protein expression, 293-COX-2 cells were cultured for 48 hours in media supplemented with 1 μg/ml of ponasterone. All cells were cultured at 37° C. in a humidified incubator with a 5% CO2 atmosphere.
(§4) For the cell proliferation assay, cells were dispersed and plated at 40,000 cells/well in 96-well dishes. At various days in culture, the cells were gently washed twice with 100 μl/well of ice-cold blocking buffer (1% radioimmunoassay grade BSA in PBS) and twice with 100 μl/well of ice-cold PBS. The cells were fixed for 10 min in 100% ice-cold methanol (100 μl/well), then allowed to air-dry. The cells were stained with 100μl/well of 0.1% crystal violet in H2O for 10 minutes, then washed gently four times with dd H20 and four times with PBS. The plates were then air-dried completely. The stained cells were then solubilized in 1% sodium deoxycholate, and the plates read at 590 nm in a spectrophotometer. The absorption at 590 nm is proportional to the number of attached cells.

[5] = test system: DLD-1 colon cancer cell line; assay: Cell proliferation assay (crystal violet, 590 nm); details: 10 and 50 μg/ml, after several days of treatment
Protocol: as §3, §4

[6] = test system: HT-29 colon cancer cell line; assay: Cell proliferation assay (crystal violet, 590 nm); details: 10 and 50 μg/ml, after several days of treatment
Protocol: as §3, §4

| Compound | level of apoptosis (annexin V-positive, propidium iodide-negative cells) (adherent HT-29 cells; adherent HT-29, doses up to 20 μM (MG-132 20 μM), 24 hours) | induction of apoptosis during readhesion [1] | cleaved PARP in cells that remained adherent [2] | cleaved PARP in the nonadherent cells [2] | cleaved PARP in cells that remained adherent [3] | cleaved PARP in the non-adherent cells [3] | effect of cA2 pretreatment on BAY 11-7085-induced apoptosis (adherent HT-29 cells; HT-29, 50 μg/ml cA2 for 48 hours, then 20 μM BAY 11-7085 for 24 hours) | inhibition of colon cancer cell proliferation [4] | inhibition of colon cancer cell proliferation [5] | inhibition of colon cancer cell proliferation [6] |
| --- | --- | --- | --- | --- | --- | --- | --- | --- | --- | --- |
| CC(C)C[C@@H](C=O)NC(=O)[C@H](CC(C)C)NC(=O)[C@H](CC(C)C)NC(=O)OCc1ccccc1 [MG-132, N-[(phenylmethoxy)carbonyl]-L-leucyl-N-[(1S)-1-formyl-3-methylbutyl]-L-leucinamide] (Cbz-Leu-Leu-Leu-aldehyde) | relatively greater for MG-132 than BAY 11-7085; also recorded: caused a greater increase in apoptosis | more potently induced apoptosis | only a small increase in cleaved PARP | large increase in cleaved PARP | only a small increase in cleaved PARP | large increase in cleaved PARP | – | – | – | – |
| S=C(S)N1CCCC1 [PDTC, pyrrolidine dithiocarbamate] | – | caused apoptosis of HT-29 cells during readhesion | – | – | – | – | – | – | – | – |
| cA2: antagonistic and chimeric TNFα monoclonal antibody purchased from the clinical pharmacy; inhibits TNFα binding to TNFα receptors | – | – | – | – | – | – | did not diminish BAY 11-7085-induced apoptosis | significant inhibition | significant inhibition | significant inhibition |
